Data published in US20080262068A1, “Method of Tonic Treatment With Oxyphenbutazone Derivatives” (A-Viral ASA, priority 2004, published 2008).
Read-outs that look alike come from different tables or passages of the source.

Columns and labels:
[1] = tested on: anti-CD3/anti-CD28 induced GM-CSF production; experiment: anti-CD3/anti-CD28 induced GM-CSF production by PBMC (ELISA); format: cell-based, human; conditions: for IC50: 3 days anti-CD3/anti-CD28 stimulation, mean ± SD of at least 3 donors, 0.15-40 μM tested, read-out: IC50 aCD3/aCD28 stimulation (GM-CSF production); for concentration inhibiting GM-CSF production (total inhibition): concentration series up to 40 μM
Procedure: (§1) The medium used throughout this Example was Iscoves modified Dulbecco's medium (IMDM, Bio Whittaker, Verviers, Belgium) containing 100 U/ml penicillin, […] streptomycin (Gibco, Merelbeke, Belgium), 50 μM 2-mercaptoethanol (Sigma-Aldrich, Steinheim, Germany), 5% heat-inactivated fetal calf serum (FCS, Bodinco, Alkmaar, the Netherlands) and 20 mg/ml human transferrin (Sigma-Aldrich).
(§2) PBMC (peripheral blood mononuclear cells) were isolated from freshly drawn blood of a healthy donor and separated over a Percoll gradient (d=1.078, Pharmacia Fine Chemicals AB, Uppsala, Sweden). These isolated PBMC were cultured in 200 μl IMDM (2×10^5 cells/ml) at 37° C. in the presence of 5% CO2 in flat bottom plates (Nunc, Roskilde, Denmark). A combination of 1 μg/ml anti-CD3 and anti-CD28 (CLB.T3/4.E res. CLB.CD28/1, CLB, Amsterdam, The Netherlands) was used for T lymphocyte stimulation. For monocyte stimulation 100 pg/ml lipo-oligosaccharide (LOS, kind gift of Dr. J. Poolman, RIVM, Bilthoven, The Netherlands) was used.
(§3) Cytokine production of T lymphocytes was measured 3 days after anti CD3/anti CD28 stimulation. 1 day after LOS stimulation of the monocytes, cytokine production was measured. At the indicated times, supernatant was harvested and stored at −20° C. until used. IL-1b, IL-6, IL-8, IL-10, IL-12, IL-13, TNFa and IFNg were detected with ELISA kits (PeliKine-compact, CLB, Amsterdam, The Netherlands) according to the protocol. Summarized briefly, mAbs were coated on flat bottom microtitre plates (Nunc, Maxisorb) overnight in 100 μl 0.1 M sodiumbicarbonate at pH 9.6. All incubations were performed in 100 μl at room temperature. Plates were washed 5 times with PBS+0.02% Tween (Mallinckrodt Baker, Deventer, The Netherlands). Samples were incubated together with a biotinylated mAb for 2 hours in High Performance ELISA-buffer (CLB). Plates were washed 5 times with PBS+0.02% Tween and incubated with streptavidin-labeled poly-horseradish peroxidase (CLB) 1:1000 diluted in PBS+2% skimmed milk for 30 minutes. After 5 wash steps the plates were developed with TMB-substrate containing 0.003% H2O2, […] 3,5,3′,5′-tetramethylbenzidine (Merck, Darmstadt, Germany) in 0.11 M sodium acetate, pH 5.5. The reaction was stopped with an equal volume of 2 M H2SO4. The plates were measured in an ELISA-reader at 450 nm, using 540 nm for background measurements. GM-CSF was measured using a protocol similar to that used for the other cytokines. The GM-CSF Abs were a kind gift from Dr. G. Trinchieri (the Wistar Institute, Philadelphia, Pa., USA) In this assay the coating Ab was anti-GM-CSF 9.1 (used at 2 μg/ml), the biotinylated Ab was anti-GM-CSF 16.3 (0.1 μg/ml). rGM-CSF (Sandoz, Basel, Switzerland) and HGF 22.10 (CLB) were used for preparation of a standard curve.
IC50 values (the concentration of the compound needed to inhibit 50% of the maximum response) were determined by using 2-fold titration curves of the compound. The minimum concentration tested was 0.15 μM and the maximum concentration was 40 μM. […] IL-6 in the culture supernatant was determined after 24 h of LOS stimulation of the PBMC by ELISA. GM-CSF in the culture supernatant was determined after 3 days of anti-CD3/anti-CD28 stimulation of the PBMC by ELISA

[2] = tested on: LOS induced IL-6 production; experiment: LOS induced IL-6 production by PBMC (ELISA); format: cell-based, human; conditions: for IC50: 24 h LOS stimulation, mean ± SD of at least 3 donors, 0.15-40 μM tested
Procedure: as §1, with “(Sigma-Aldrich). All used compounds are endotoxin free.” for “(Sigma-Aldrich).”
as §2, §3
IC50 values (the concentration of the compound needed to inhibit 50% of the maximum response) were determined by using 2-fold titration curves of the compound. The minimum concentration tested was 0.15 μM and the maximum concentration was 40 μM. Results represent the mean ±standard deviation of at least 3 donors. IL-6 in the culture supernatant was determined after 24 h of LOS stimulation of the PBMC by ELISA. GM-CSF in the culture supernatant was determined after 3 days of anti-CD3/anti-CD28 stimulation of the PBMC by ELISA

[3] = tested on: Th1 and Th2 specific cytokine production; experiment: Effect on lymphocyte specific cytokines (Th1 and Th2); format: cell-based, human
Procedure: as §2
(§4) Cytokine production of T lymphocytes was measured 3 days after anti CD3/anti CD28 stimulation. 1 day after LOS stimulation of the monocytes, cytokine production was measured. At the indicated times, supernatant was harvested and stored at −20° C. until used. IL-1b, IL-6, IL-8, IL-10, IL-12, IL-13, TNFa and IFNg were detected with ELISA kits (PeliKine-compact, CLB, Amsterdam, The Netherlands) according to the protocol. Summarized briefly, mAbs were coated on flat bottom microtitre plates (Nunc, Maxisorb) overnight in 100 μl 0.1 M sodiumbicarbonate at pH 9.6. […] The plates were measured in an ELISA-reader at 450 nm, using 540 nm for background measurements. GM-CSF was measured using a protocol similar to that used for the other cytokines. […]

[4] = tested on: monokine production by monocytes; experiment: Effect on other monokines produced by stimulated monocytes; format: cell-based, human
Procedure: as §2, §4

[5] = Human volunteers given 4-OH-OPB orally before LPS infusion: tolerability; format: in vivo; conditions: 200 mg orally, 2 hours before LPS 4 ng/kg i.v.
Procedure: Eight of the volunteers received 4-OH-OPB 200 mg orally as two tablets of 100 mg and eight were given placebo tablets. Placebo tablets were chemically identical with the exception of the presence of 4-OH-OPB. The study drug and placebo were administered 2 hours prior to infusion of […] coli lipopolysaccharide, lot G1, United States Pharmacopeial Convention, Rockville, Md.) was administered as a bolus intravenous injection at a dose of 4 ng/kg body weight. Blood was drawn directly prior to the administration of 4-OH-OPB, directly prior to injection of LPS and 0.5, 1, 1.5, 2, 3, 4, 5, 6, 8, 10 and 23 hours thereafter for plasma levels of 4-OH-OPB and/or metabolites. Blood was collected in heparinized tubes which were centrifuged at 3000 r.p.m. for 10 minutes at 4° C., after which 2 ml plasma was transferred in acid containing tubes. Blood for ex vivo production of cytokines in whole blood and mononuclear cell (MNC) cultures was taken directly prior to the administration of 4-OH-OPB and directly prior to the injection of LPS (t=-2 hrs and t=0 hrs). Heparinized whole blood or MNCs were incubated with medium, LOS or anti-CD3/CD28. […] Concentrations of TNF-α, IL-6, IL-8, IL-10 were determined in EDTA-anticoagulated plasma by Cytometric Bead Array (Human BD Cytometric Bead Array Kit, BD Biosciences Pharmingen, San Jose, Calif.).

[6] = Stability of ring-opened product in aqueous solution; format: physicochemical
Source text: The product of Example 4 (PHBPQ, N-phenyl-2-hydroxy-2 butyl-1,3-propanal quinoneimine) was examined for stability in aqueous solution, followed by analysis by ^1H NMR spectroscopy.

[7] = LOS induced IL-6 production, PBMC

Molecule: CCCCC1(O)C(=O)N(c2ccccc2)N(c2ccc(O)cc2)C1=O (stereo not shown) [4-OH-OPB, 4-Hydroxy-oxyphenbutazone]
- IC50 ([1]; Homo sapiens, 72 h): 0.8 ± 0.5 µM
- concentration inhibiting GM-CSF production (total inhibition) ([1]; three days incubation): 1.25 µM
- IC50 ([2]; Homo sapiens, PBMC): 0.6 ± 0.6 µM
- cytokine inhibitory activity (IL-6 and GM-CSF production by PBMC in vitro) ([2]; IL-6 and GM-CSF production by PBMC in vitro): best inhibitor
- factor by which the IL-6 inhibiting concentration is lower than that for GM-CSF [2, 7]: 2
- inhibition of cytokine production induced by other stimuli ([3]; PMA/ionomycin, PMA/anti-CD28 or anti-CD2/anti-CD28 antibodies): inhibited at similar concentration
- effect on production of lymphocyte specific cytokines (Th1 and Th2) ([3]; anti-CD3/anti-CD28 stimulation): identical to the inhibition found for GM-CSF
- inhibition of LOS-induced monokines compared with IL-6 ([4]; LOS-induced, monocytes): inhibited identically
- inhibition of SAC induced monokine production ([4]; SAC (heat killed staphylococcus aureus cells) stimulus): also inhibited
- adverse events attributable to the compound [5]: No adverse events
- complaints of epigastric pain [5]: no complaints of epigastric pain

Molecule: O=C1N(c2ccccc2)N(c2ccc(O)cc2)C(=O)C1(O)CCS(=O)(=O)c1ccccc1 (stereo not shown) [4-OH-OPS, 4-ethylsuphonphenyl-4-hydroxy-1-phenyl-2-hydroxyphenyl-3,5-pyrazoladinedione]
- IC50 [1]: 30 ± 10 µM
- concentration inhibiting GM-CSF production (total inhibition) ([1]; three days incubation): around 40 μM
- concentration needed to inhibit IL-6 production compared to 4-OH-OPB [2, 7]: higher concentration
- IC50 ([2]; PBMC): 13 ± 4 µM

Molecule: CCCCC1C(=O)N(c2ccccc2)N(c2ccc(O)cc2)C1=O (stereo not shown) [OPB, oxyphenbutazone]
- IC50 ([1]; Homo sapiens, 72 h): 25 ± 7 µM
- concentration inhibiting GM-CSF production (total inhibition) ([1]; three days incubation): around 40 μM
- IC50 ([2]; Homo sapiens, PBMC): 13 ± 12 µM
- concentration needed to inhibit IL-6 production compared to 4-OH-OPB [2, 7]: higher concentration

Molecule: CCCCC1C(=O)N(c2ccccc2)N(c2ccccc2)C1=O [PB, phenbutazone]
- IC50 ([1]; Homo sapiens, 72 h): 30 ± 10 µM
- shape of dose-response curve for GM-CSF inhibition ([1]; three days incubation, up to 40 μM): shallow dose-response curve
- IC50 ([2]; Homo sapiens, PBMC): > 40 µM

Molecule: N-phenyl-2-hydroxy-2-butyl-1,3-propanal quinoneimine [PHBPQ]
- re-conversion into 4-OH-OPB when the solution was acidified ([6]; acidified solution): not re-converted into 4-OH—OPB
- half-life ([6]; aqueous solution, pH 7.4): 2 to 2.5 h
- stability compared with 4-OH-OPB ([6]; pH 7.4): more stable
